# Laboratory results taken from the kinase profiling compilation of Christmann-Franck et al. (2016).
# Assays:
# Test in all cases: radiometric filter-binding kinase assay
# [1] = tested on: AKT2 (human), P31751 [S474D]
# BTK (human) = BTK (human) (UniProt Q06187)
# CDK2 CCNA2 (human) = CDK2 CCNA2 (human) (UniProt P20248+P24941)
# CHEK2 (human) = CHEK2 (human) (UniProt O96017)
# CSK (human) = CSK (human) (UniProt P41240)
# CSNK1D (human) = CSNK1D (human) (UniProt P48730)
# EPHA4 (human) = EPHA4 (human) (UniProt P54764)
# EPHA4 (human), sequence (P54764 whole entry, looked up): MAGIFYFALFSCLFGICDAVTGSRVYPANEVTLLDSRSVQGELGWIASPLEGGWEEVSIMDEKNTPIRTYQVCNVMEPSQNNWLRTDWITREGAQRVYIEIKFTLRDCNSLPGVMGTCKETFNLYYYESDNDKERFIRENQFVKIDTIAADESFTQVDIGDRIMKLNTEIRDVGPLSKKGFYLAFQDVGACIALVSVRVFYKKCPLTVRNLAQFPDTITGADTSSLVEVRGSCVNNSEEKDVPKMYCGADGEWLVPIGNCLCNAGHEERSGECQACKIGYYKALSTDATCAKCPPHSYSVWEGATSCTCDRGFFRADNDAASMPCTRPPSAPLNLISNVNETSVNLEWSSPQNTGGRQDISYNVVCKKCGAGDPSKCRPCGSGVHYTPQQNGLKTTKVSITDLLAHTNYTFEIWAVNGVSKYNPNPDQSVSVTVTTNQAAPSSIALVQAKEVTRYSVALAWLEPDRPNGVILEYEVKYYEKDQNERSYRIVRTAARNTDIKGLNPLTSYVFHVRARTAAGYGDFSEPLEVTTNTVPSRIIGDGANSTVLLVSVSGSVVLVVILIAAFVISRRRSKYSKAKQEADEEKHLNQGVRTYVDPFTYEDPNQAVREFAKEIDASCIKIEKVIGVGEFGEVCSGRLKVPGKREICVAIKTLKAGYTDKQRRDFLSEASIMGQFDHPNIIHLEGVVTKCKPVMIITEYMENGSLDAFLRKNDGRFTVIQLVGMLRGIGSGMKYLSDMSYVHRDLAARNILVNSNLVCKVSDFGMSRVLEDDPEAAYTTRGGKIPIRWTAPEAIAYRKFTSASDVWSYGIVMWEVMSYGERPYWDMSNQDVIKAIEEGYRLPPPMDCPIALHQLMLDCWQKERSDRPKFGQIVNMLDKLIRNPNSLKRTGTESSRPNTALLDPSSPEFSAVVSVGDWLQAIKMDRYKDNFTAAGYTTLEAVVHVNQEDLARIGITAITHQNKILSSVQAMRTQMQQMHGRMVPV
# EPHB4 (human) = EPHB4 (human) (UniProt P54760)
# FLT1 (human) = FLT1 (human) (UniProt P17948)
# IKBKB (human) = IKBKB (human) (UniProt O14920)
# IKBKE (human) = IKBKE (human) (UniProt Q14164)
# INSRR (human) = INSRR (human) (UniProt P14616)
# MAP2K1 (human) = MAP2K1 (human) (UniProt Q02750)
# MAPK1 (human) = MAPK1 (human) (UniProt P28482)
# MAPK14 (human) = MAPK14 (human) (UniProt Q16539)
# MAPK14 (human), sequence (Q16539 whole entry, looked up): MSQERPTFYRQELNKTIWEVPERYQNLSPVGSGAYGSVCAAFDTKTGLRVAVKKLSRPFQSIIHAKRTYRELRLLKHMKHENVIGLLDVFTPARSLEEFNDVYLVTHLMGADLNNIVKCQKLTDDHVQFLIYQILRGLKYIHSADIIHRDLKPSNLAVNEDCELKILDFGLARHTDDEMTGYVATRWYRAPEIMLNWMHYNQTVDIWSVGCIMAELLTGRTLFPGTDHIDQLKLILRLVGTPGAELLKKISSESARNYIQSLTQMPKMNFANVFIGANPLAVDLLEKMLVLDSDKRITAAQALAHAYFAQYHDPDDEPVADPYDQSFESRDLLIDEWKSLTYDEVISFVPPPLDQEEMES
# MAPK15 (human) = MAPK15 (human) (UniProt Q8TD08)
# MAPK3 (human) = MAPK3 (human) (UniProt P27361)
# MAPKAPK3 (human) = MAPKAPK3 (human) (UniProt Q16644)
# MKNK2 (human) = MKNK2 (human) (UniProt Q9HBH9)
# NEK2 (human) = NEK2 (human) (UniProt P51955)
# NEK6 (human) = NEK6 (human) (UniProt Q9HC98)
# NEK6 (human), sequence (Q9HC98 whole entry, looked up): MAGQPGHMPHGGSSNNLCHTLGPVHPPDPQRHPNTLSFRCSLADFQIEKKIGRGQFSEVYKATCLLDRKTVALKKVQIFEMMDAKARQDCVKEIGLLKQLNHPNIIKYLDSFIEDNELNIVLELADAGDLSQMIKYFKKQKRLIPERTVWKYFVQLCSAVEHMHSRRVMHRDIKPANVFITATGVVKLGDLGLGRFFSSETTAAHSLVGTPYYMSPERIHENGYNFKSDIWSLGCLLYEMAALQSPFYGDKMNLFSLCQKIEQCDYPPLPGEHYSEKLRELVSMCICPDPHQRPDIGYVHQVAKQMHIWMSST
# PAK7 (human) = PAK7 (human) (UniProt Q9P286)
# PAK7 (human), sequence (Q9P286 whole entry, looked up): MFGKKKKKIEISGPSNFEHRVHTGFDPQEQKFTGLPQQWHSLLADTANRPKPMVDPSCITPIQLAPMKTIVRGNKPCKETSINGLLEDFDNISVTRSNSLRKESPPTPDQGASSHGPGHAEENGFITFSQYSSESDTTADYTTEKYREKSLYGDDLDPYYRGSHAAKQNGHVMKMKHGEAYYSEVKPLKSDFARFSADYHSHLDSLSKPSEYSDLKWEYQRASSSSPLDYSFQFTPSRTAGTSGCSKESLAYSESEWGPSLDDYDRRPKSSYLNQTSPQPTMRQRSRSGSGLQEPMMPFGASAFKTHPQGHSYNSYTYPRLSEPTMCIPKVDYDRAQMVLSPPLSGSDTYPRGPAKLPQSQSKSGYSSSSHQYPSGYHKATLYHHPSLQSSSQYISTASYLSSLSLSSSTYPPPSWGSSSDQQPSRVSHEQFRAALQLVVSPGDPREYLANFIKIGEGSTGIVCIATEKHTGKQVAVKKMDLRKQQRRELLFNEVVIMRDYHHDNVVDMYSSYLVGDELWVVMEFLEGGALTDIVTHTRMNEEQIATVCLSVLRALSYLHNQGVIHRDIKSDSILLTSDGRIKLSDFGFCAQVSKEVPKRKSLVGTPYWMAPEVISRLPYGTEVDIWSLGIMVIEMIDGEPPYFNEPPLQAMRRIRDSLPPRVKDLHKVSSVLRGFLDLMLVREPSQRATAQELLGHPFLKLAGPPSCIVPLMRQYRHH
# PIM2 (human) = PIM2 (human) (UniProt Q9P1W9)
# PLK1 (human) = PLK1 (human) (UniProt P53350)
# PRKAA1 or PRKAA2 (rat) = settings: accession and sequence are those of the human protein
# PRKACA (human) = PRKACA (human) (UniProt P17612)
# RIPK2 (human) = RIPK2 (human) (UniProt O43353)
# RIPK2 (human), sequence (O43353 whole entry, looked up): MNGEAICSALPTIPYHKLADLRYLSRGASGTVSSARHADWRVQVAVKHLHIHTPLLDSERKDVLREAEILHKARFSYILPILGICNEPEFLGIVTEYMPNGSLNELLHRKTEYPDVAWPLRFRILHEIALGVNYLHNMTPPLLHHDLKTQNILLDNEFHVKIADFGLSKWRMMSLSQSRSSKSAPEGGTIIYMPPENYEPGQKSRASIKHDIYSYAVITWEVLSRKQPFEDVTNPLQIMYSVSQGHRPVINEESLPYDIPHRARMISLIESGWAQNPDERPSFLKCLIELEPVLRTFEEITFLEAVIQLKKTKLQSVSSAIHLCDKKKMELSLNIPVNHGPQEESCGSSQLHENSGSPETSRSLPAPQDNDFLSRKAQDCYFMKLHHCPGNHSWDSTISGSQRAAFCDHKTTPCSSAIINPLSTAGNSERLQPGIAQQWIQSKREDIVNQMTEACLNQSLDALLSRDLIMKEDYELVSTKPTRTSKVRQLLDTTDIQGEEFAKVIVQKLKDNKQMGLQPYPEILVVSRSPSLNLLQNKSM
# RPS6KA1 KD1 KD2 (human) = RPS6KA1 KD1 KD2 (human) (UniProt Q15418)
# RPS6KA1 KD1 KD2 (human), sequence (Q15418 whole entry, looked up): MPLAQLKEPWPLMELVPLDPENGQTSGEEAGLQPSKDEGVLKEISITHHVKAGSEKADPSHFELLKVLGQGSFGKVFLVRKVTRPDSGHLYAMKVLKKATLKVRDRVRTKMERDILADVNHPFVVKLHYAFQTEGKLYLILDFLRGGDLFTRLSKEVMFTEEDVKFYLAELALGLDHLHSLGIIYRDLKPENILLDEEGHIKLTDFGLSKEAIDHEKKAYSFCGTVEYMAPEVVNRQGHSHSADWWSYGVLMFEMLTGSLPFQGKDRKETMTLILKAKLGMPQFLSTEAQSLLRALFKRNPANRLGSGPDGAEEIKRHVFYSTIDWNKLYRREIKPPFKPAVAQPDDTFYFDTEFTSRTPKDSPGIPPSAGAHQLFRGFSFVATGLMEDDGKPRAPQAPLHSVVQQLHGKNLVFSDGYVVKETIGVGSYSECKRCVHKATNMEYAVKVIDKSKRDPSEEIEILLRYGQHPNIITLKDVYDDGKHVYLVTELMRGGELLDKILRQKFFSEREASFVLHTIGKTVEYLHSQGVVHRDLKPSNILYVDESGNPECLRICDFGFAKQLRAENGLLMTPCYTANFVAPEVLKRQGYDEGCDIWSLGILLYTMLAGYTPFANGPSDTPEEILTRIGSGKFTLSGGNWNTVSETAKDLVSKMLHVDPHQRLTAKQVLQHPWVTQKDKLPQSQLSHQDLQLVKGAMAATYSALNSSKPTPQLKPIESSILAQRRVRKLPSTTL
# RPS6KA3 KD1 KD2 (human) = RPS6KA3 KD1 KD2 (human) (UniProt P51812)
# RPS6KA3 KD1 KD2 (human), sequence (P51812 whole entry, looked up): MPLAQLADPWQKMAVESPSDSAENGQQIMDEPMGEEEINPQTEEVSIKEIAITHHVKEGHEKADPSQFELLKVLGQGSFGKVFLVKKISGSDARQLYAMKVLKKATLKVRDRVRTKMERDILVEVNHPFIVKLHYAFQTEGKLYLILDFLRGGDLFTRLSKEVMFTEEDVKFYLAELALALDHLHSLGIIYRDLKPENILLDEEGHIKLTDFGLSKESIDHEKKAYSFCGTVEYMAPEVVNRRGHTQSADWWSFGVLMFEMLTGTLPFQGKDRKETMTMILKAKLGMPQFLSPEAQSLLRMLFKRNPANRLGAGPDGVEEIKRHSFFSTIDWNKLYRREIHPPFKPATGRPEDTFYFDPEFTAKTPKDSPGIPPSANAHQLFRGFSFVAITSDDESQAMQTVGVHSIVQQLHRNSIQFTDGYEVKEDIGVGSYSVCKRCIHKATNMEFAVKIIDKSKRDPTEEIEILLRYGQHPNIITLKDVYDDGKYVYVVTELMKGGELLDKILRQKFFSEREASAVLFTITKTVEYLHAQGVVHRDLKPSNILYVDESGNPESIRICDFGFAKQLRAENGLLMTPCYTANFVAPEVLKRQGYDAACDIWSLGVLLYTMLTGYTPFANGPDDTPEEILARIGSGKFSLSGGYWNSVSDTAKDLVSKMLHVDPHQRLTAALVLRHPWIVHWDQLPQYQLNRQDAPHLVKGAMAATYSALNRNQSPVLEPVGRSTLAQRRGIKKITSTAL
# RPS6KA5 KD1 KD2 (human) = RPS6KA5 KD1 KD2 (human) (UniProt O75582)
# [2] = tested on: RPS6KB1 (human), P23443 [T412E]
# RPS6KB1 (human), P23443 [T412E], sequence (P23443 whole entry T412E, looked up): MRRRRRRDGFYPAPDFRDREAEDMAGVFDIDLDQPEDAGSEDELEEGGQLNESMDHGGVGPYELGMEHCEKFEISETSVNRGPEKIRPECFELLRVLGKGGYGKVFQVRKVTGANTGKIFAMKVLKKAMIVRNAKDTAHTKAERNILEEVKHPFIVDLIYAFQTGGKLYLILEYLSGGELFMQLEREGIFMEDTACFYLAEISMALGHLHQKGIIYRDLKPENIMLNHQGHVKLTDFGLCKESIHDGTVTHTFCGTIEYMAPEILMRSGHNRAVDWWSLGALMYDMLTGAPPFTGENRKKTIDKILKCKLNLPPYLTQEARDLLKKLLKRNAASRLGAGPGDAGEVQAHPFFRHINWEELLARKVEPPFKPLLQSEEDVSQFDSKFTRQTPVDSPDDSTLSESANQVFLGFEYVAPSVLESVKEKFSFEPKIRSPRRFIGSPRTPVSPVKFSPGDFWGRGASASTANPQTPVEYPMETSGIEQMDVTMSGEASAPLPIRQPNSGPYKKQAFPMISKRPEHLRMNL
# SRC (human) = SRC (human) (UniProt P12931)
# SYK (human) = SYK (human) (UniProt P43405)
# TTK (human) = TTK (human) (UniProt P33981)
structure (smiles),measurement,setting,value
Cc1cccc(-c2nn(C(=S)Nc3ccccc3)cc2-c2ccnc3ccccc23)n1,residual activity,[1]; compound 0.1 µM,108%
same,residual activity,[1]; compound 1.0 µM,96%
same,residual activity,BTK (human); compound 0.1 µM,110%
same,residual activity,BTK (human); compound 1.0 µM,104%
same,residual activity,CDK2 CCNA2 (human); compound 0.1 µM,93%
same,residual activity,CDK2 CCNA2 (human); compound 1.0 µM,102%
same,residual activity,CHEK2 (human); compound 0.1 µM,115%
same,residual activity,CHEK2 (human); compound 1.0 µM,110%
same,residual activity,CSK (human); compound 0.1 µM,97%
same,residual activity,CSK (human); compound 1.0 µM,93%
same,residual activity,CSNK1D (human); compound 0.1 µM,90%
same,residual activity,CSNK1D (human); compound 1.0 µM,46%
same,residual activity,EPHA4 (human); compound 0.1 µM,108%
same,residual activity,EPHA4 (human); compound 1.0 µM,98%
same,residual activity,EPHB4 (human); compound 0.1 µM,93%
same,residual activity,EPHB4 (human); compound 1.0 µM,93%
same,residual activity,FLT1 (human); compound 0.1 µM,27%
same,residual activity,FLT1 (human); compound 1.0 µM,8%
same,residual activity,IKBKB (human); compound 0.1 µM,107%
same,residual activity,IKBKB (human); compound 1.0 µM,100%
same,residual activity,IKBKE (human); compound 0.1 µM,112%
same,residual activity,IKBKE (human); compound 1.0 µM,106%
same,residual activity,INSRR (human); compound 0.1 µM,98%
same,residual activity,INSRR (human); compound 1.0 µM,103%
same,residual activity,MAP2K1 (human); compound 1.0 µM,98%
same,residual activity,MAPK1 (human); compound 0.1 µM,104%
same,residual activity,MAPK1 (human); compound 1.0 µM,94%
same,residual activity,MAPK14 (human); compound 0.1 µM,56%
same,residual activity,MAPK14 (human); compound 1.0 µM,16%
same,residual activity,MAPK15 (human); compound 0.1 µM,108%
same,residual activity,MAPK15 (human); compound 1.0 µM,93%
same,residual activity,MAPK3 (human); compound 0.1 µM,105%
same,residual activity,MAPK3 (human); compound 1.0 µM,100%
same,residual activity,MAPKAPK3 (human); compound 0.1 µM,107%
same,residual activity,MAPKAPK3 (human); compound 1.0 µM,97%
same,residual activity,MKNK2 (human); compound 0.1 µM,81%
same,residual activity,MKNK2 (human); compound 1.0 µM,91%
same,residual activity,NEK2 (human); compound 0.1 µM,109%
same,residual activity,NEK2 (human); compound 1.0 µM,92%
same,residual activity,NEK6 (human); compound 0.1 µM,107%
same,residual activity,NEK6 (human); compound 1.0 µM,100%
same,residual activity,PAK7 (human); compound 0.1 µM,107%
same,residual activity,PAK7 (human); compound 1.0 µM,102%
same,residual activity,PIM2 (human); compound 0.1 µM,97%
same,residual activity,PIM2 (human); compound 1.0 µM,94%
same,residual activity,PLK1 (human); compound 0.1 µM,99%
same,residual activity,PLK1 (human); compound 1.0 µM,106%
same,residual activity,PRKAA1 or PRKAA2 (rat); compound 0.1 µM,99%
same,residual activity,PRKAA1 or PRKAA2 (rat); compound 1.0 µM,82%
same,residual activity,PRKACA (human); compound 0.1 µM,109%
same,residual activity,PRKACA (human); compound 1.0 µM,99%
same,residual activity,RIPK2 (human); compound 0.1 µM,26%
same,residual activity,RIPK2 (human); compound 1.0 µM,9%
same,residual activity,RPS6KA1 KD1 KD2 (human); compound 0.1 µM,110%
same,residual activity,RPS6KA1 KD1 KD2 (human); compound 1.0 µM,95%
same,residual activity,RPS6KA3 KD1 KD2 (human); compound 0.1 µM,126%
same,residual activity,RPS6KA3 KD1 KD2 (human); compound 1.0 µM,109%
same,residual activity,RPS6KA5 KD1 KD2 (human); compound 0.1 µM,110%
same,residual activity,RPS6KA5 KD1 KD2 (human); compound 1.0 µM,101%
same,residual activity,[2]; compound 0.1 µM,108%
same,residual activity,[2]; compound 1.0 µM,105%
same,residual activity,SRC (human); compound 0.1 µM,102%
same,residual activity,SRC (human); compound 1.0 µM,75%
same,residual activity,SYK (human); compound 0.1 µM,109%
same,residual activity,SYK (human); compound 1.0 µM,106%
same,residual activity,TTK (human); compound 0.1 µM,113%
same,residual activity,TTK (human); compound 1.0 µM,98%
NC(=O)c1cc2c(-c3cccc(-c4ccccc4)c3)cnc(N)c2s1,residual activity,[1]; compound 0.1 µM,94%
same,residual activity,[1]; compound 1.0 µM,88%
same,residual activity,[1]; compound 10.0 µM,98%
same,residual activity,BTK (human); compound 1.0 µM,94%
same,residual activity,BTK (human); compound 10.0 µM,30%
same,residual activity,CDK2 CCNA2 (human); compound 0.1 µM,97%
same,residual activity,CDK2 CCNA2 (human); compound 1.0 µM,87%
same,residual activity,CDK2 CCNA2 (human); compound 10.0 µM,35%
same,residual activity,CHEK2 (human); compound 0.1 µM,104%
same,residual activity,CHEK2 (human); compound 1.0 µM,37%
same,residual activity,CHEK2 (human); compound 10.0 µM,18%
same,residual activity,CSK (human); compound 0.1 µM,90%
same,residual activity,CSK (human); compound 1.0 µM,82%
same,residual activity,CSK (human); compound 10.0 µM,58%
same,residual activity,CSNK1D (human); compound 0.1 µM,109%
same,residual activity,CSNK1D (human); compound 1.0 µM,73%
same,residual activity,CSNK1D (human); compound 10.0 µM,18%
same,residual activity,EPHA4 (human); compound 0.1 µM,93%
same,residual activity,EPHA4 (human); compound 1.0 µM,89%
same,residual activity,EPHA4 (human); compound 10.0 µM,71%
same,residual activity,EPHB4 (human); compound 0.1 µM,107%
same,residual activity,EPHB4 (human); compound 1.0 µM,76%
same,residual activity,EPHB4 (human); compound 10.0 µM,19%
same,residual activity,FLT1 (human); compound 0.1 µM,100%
same,residual activity,FLT1 (human); compound 1.0 µM,55%
same,residual activity,FLT1 (human); compound 10.0 µM,22%
same,residual activity,IKBKB (human); compound 0.1 µM,96%
same,residual activity,IKBKB (human); compound 1.0 µM,81%
same,residual activity,IKBKB (human); compound 10.0 µM,65%
same,residual activity,IKBKE (human); compound 0.1 µM,109%
same,residual activity,IKBKE (human); compound 1.0 µM,86%
same,residual activity,IKBKE (human); compound 10.0 µM,31%
same,residual activity,INSRR (human); compound 0.1 µM,66%
same,residual activity,INSRR (human); compound 1.0 µM,26%
same,residual activity,INSRR (human); compound 10.0 µM,16%
same,residual activity,MAP2K1 (human); compound 0.1 µM,90%
same,residual activity,MAP2K1 (human); compound 1.0 µM,86%
same,residual activity,MAP2K1 (human); compound 10.0 µM,17%
same,residual activity,MAPK1 (human); compound 0.1 µM,81%
same,residual activity,MAPK1 (human); compound 1.0 µM,35%
same,residual activity,MAPK1 (human); compound 10.0 µM,6%
same,residual activity,MAPK14 (human); compound 0.1 µM,110%
same,residual activity,MAPK14 (human); compound 1.0 µM,101%
same,residual activity,MAPK14 (human); compound 10.0 µM,59%
same,residual activity,MAPK15 (human); compound 0.1 µM,99%
same,residual activity,MAPK15 (human); compound 1.0 µM,50%
same,residual activity,MAPK15 (human); compound 10.0 µM,23%
same,residual activity,MAPK3 (human); compound 1.0 µM,58%
same,residual activity,MAPK3 (human); compound 10.0 µM,16%
same,residual activity,MAPKAPK3 (human); compound 0.1 µM,93%
same,residual activity,MAPKAPK3 (human); compound 1.0 µM,84%
same,residual activity,MAPKAPK3 (human); compound 10.0 µM,69%
same,residual activity,MKNK2 (human); compound 1.0 µM,91%
same,residual activity,MKNK2 (human); compound 10.0 µM,66%
same,residual activity,NEK2 (human); compound 0.1 µM,88%
same,residual activity,NEK2 (human); compound 1.0 µM,74%
same,residual activity,NEK2 (human); compound 10.0 µM,44%
same,residual activity,NEK6 (human); compound 0.1 µM,108%
same,residual activity,NEK6 (human); compound 1.0 µM,98%
same,residual activity,NEK6 (human); compound 10.0 µM,135%
same,residual activity,PAK7 (human); compound 0.1 µM,79%
same,residual activity,PAK7 (human); compound 1.0 µM,37%
same,residual activity,PAK7 (human); compound 10.0 µM,16%
same,residual activity,PIM2 (human); compound 0.1 µM,98%
same,residual activity,PIM2 (human); compound 1.0 µM,95%
same,residual activity,PIM2 (human); compound 10.0 µM,81%
same,residual activity,PLK1 (human); compound 0.1 µM,108%
same,residual activity,PLK1 (human); compound 1.0 µM,98%
same,residual activity,PLK1 (human); compound 10.0 µM,97%
same,residual activity,PRKAA1 or PRKAA2 (rat); compound 0.1 µM,99%
same,residual activity,PRKAA1 or PRKAA2 (rat); compound 1.0 µM,95%
same,residual activity,PRKAA1 or PRKAA2 (rat); compound 10.0 µM,68%
same,residual activity,PRKACA (human); compound 0.1 µM,80%
same,residual activity,PRKACA (human); compound 1.0 µM,103%
same,residual activity,PRKACA (human); compound 10.0 µM,96%
same,residual activity,RIPK2 (human); compound 0.1 µM,86%
same,residual activity,RIPK2 (human); compound 1.0 µM,36%
same,residual activity,RIPK2 (human); compound 10.0 µM,12%
same,residual activity,RPS6KA1 KD1 KD2 (human); compound 0.1 µM,92%
same,residual activity,RPS6KA1 KD1 KD2 (human); compound 1.0 µM,65%
same,residual activity,RPS6KA1 KD1 KD2 (human); compound 10.0 µM,31%
same,residual activity,RPS6KA3 KD1 KD2 (human); compound 0.1 µM,108%
same,residual activity,RPS6KA3 KD1 KD2 (human); compound 1.0 µM,84%
same,residual activity,RPS6KA3 KD1 KD2 (human); compound 10.0 µM,53%
same,residual activity,RPS6KA5 KD1 KD2 (human); compound 1.0 µM,97%
same,residual activity,RPS6KA5 KD1 KD2 (human); compound 10.0 µM,70%
same,residual activity,[2]; compound 0.1 µM,112%
same,residual activity,[2]; compound 1.0 µM,90%
same,residual activity,[2]; compound 10.0 µM,39%
same,residual activity,SRC (human); compound 0.1 µM,100%
same,residual activity,SRC (human); compound 1.0 µM,89%
same,residual activity,SRC (human); compound 10.0 µM,108%
same,residual activity,SYK (human); compound 0.1 µM,96%
same,residual activity,SYK (human); compound 1.0 µM,88%
same,residual activity,SYK (human); compound 10.0 µM,56%
same,residual activity,TTK (human); compound 0.1 µM,87%
same,residual activity,TTK (human); compound 1.0 µM,55%
same,residual activity,TTK (human); compound 10.0 µM,24%
